A short description of series [1]: Test Example 11: BA test (oral absorbability). Type of series: in vivo. As to conditions: plasma; Mouse, oral administration 1 mg/kg. How it is done:
Materials and methods for experiments to evaluate oral absorbability
(1) Experimental animals: rats or mice were used. (2) Breeding condition: rats or mice were allowed free access to solid feed and sterilized tap water (3) Setting of dosage and grouping: Oral administration and intravenous administration were performed with the predetermined dosage. Grouping was set as below. (Dosage varied depending on each compound)
Oral administration 1 to 30 mg/kg (n=2 to 3)
Intravenous administration 0.5 to 10 mg/kg (n=2 to 3)
(4) Preparation of administered liquid: Oral administration was performed using a solution or a suspension. Intravenous administration was performed after solubilization. (5) Method of Administration: In oral administration, compulsory administration to the stomach was conducted using an oral sonde. […] (6) Evaluation items: Blood was chronologically collected, and then concentration of a compound of the present invention in blood plasma was measured using a LC/MS/MS. […]
(7) Statistical analysis: With regard to a shift in plasma concentration of the compound of the present invention, the area under the plasma concentration-time curve (AUC) was calculated using a nonlinear least-squares program, WinNonlin (a registered trademark). Bioavailability (BA) was calculated from the AUCs of the oral administration group and the intravenous administration group. […]

For the next series, the target named is T1, CYP3A4 (Homo sapiens, UniProt P08684).
T1 construct: enzyme, pooled human hepatic microsome 0.2 mg protein/mL; from tissue; host or cells: pooled human liver microsomes
T1 sequence (P08684 whole entry): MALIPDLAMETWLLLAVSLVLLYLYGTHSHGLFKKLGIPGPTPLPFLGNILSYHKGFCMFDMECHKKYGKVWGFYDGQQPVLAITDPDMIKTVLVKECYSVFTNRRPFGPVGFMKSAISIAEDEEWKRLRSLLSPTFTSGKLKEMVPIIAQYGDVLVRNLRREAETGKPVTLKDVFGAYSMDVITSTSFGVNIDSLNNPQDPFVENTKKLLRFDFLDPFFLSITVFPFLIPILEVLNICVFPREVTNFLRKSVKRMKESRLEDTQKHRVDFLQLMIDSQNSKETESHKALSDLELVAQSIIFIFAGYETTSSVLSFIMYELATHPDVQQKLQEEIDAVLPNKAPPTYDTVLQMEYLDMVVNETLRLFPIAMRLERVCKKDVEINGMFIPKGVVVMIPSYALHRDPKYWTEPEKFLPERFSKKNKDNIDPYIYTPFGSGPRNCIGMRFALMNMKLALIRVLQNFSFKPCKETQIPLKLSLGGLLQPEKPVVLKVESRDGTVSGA
Description: Test Example 6: CYP inhibition test, terfenedine hydroxylation (CYP3A4). The format is in vitro ADME. The conditions noted are these: pooled human hepatic microsome, 1 μmol/L terfenedine. Here is the method:
(§1) Test Example 6 CYP Inhibition Test […] The reaction conditions were as follows: substrate, 0.5 μmol/L ethoxyresorufin (CYP1A2), 100 μmol/L tolbutamide (CYP2C9), 50 μmol/L S-mephenytoin (CYP2C19), 5 μmol/L dextromethorphan (CYP2D6), 1 μmol/L terfenedine (CYP3A4); reaction time, 15 minutes; reaction temperature, 37° C.; enzyme, pooled human hepatic microsome 0.2 mg protein/mL; concentration of the compound of the present invention, 1, 5, 10, 20 μmol/L (four points). Each five kinds of substrates, human hepatic microsome, and the compound of the present invention in 50 mmol/L Hepes buffer as a reaction solution were added to a 96-well plate at the composition as described above. NADPH, as a cofactor was added to initiate metabolism reactions as markers and, after the incubation at 37° C. for 15 minutes, a methanol/acetonitrile=1/1 (v/v) solution was added to stop the reaction. After the centrifugation at 3000 rpm for 15 minutes, resorufin (CYP1A2 metabolite) in the supernatant was quantified by a fluorescent multilabel counter and toltributamide hydroxide (CYP2[…] metabolite), mephenytoin 4' hydroxide (CYP2C19 metabolite), […], and terfenadine alcohol (CYP3A4 metabolite) were quantified by LC/MS/MS. Addition of only DMSO being a solvent dissolving the compound of the present invention to a reaction system was adopted as a control (100%). Remaining activity (%) was calculated at each concentration of the compound of the present invention added as the solution and IC50 was calculated by reverse presumption by a logistic model using a concentration and an inhibition rate.

The target in the next series is T2, CYP2C9 (Homo sapiens, UniProt P11712).
T2 construct: enzyme, pooled human hepatic microsome 0.2 mg protein/mL; from tissue; host or cells: pooled human liver microsomes
T2 sequence (P11712 whole entry): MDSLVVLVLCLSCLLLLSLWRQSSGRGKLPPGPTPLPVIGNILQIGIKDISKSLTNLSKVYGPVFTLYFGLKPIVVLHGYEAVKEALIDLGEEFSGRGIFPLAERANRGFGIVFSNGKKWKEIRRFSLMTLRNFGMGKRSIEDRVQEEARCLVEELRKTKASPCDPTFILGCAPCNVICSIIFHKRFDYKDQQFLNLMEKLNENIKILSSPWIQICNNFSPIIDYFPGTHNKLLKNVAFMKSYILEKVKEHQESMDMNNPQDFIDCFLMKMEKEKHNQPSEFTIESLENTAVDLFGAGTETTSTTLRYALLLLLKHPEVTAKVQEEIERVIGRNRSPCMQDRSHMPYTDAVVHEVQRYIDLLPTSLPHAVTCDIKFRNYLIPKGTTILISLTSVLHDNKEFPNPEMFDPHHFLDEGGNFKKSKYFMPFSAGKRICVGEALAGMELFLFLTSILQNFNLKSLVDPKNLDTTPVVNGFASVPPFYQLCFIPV
Description: Test Example 6: CYP inhibition test, tolbutamide methyl-hydroxylation (CYP2C9). Type of series: in vitro ADME. As to conditions: pooled human hepatic microsome, 100 μmol/L tolbutamide. How it is done:
as §1

The target of another series is T3, CYP2D6 (Homo sapiens, UniProt P10635).
T3 construct: enzyme, pooled human hepatic microsome 0.2 mg protein/mL; from tissue; host or cells: pooled human liver microsomes
T3 sequence (P10635 whole entry): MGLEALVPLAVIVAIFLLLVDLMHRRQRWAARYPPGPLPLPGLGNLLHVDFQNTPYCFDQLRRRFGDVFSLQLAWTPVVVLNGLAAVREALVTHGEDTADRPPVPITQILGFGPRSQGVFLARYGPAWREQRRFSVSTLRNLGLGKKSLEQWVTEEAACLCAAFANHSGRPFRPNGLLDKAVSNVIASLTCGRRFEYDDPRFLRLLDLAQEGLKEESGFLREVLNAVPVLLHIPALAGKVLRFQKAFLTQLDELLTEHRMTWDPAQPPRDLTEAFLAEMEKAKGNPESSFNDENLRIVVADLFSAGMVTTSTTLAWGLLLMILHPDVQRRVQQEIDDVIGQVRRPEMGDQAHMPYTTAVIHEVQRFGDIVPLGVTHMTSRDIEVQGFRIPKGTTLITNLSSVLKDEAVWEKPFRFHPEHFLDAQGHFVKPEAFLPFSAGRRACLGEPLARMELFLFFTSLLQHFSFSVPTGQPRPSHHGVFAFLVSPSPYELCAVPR
The series is described as follows: Test Example 6: CYP inhibition test, dextromethorphan O-demethylation (CYP2D6). The format is in vitro ADME. As to conditions: pooled human hepatic microsome, 5 μmol/L dextromethorphan. How it is done:
as §1

The target in series [2] is T4, human TRPV4 (hTRPV4/CHO cells) (Homo sapiens, UniProt Q9HBA0).
T4 construct: expressed in transfected cells; host or cells: CHO-K1
T4 sequence (Q9HBA0 whole entry): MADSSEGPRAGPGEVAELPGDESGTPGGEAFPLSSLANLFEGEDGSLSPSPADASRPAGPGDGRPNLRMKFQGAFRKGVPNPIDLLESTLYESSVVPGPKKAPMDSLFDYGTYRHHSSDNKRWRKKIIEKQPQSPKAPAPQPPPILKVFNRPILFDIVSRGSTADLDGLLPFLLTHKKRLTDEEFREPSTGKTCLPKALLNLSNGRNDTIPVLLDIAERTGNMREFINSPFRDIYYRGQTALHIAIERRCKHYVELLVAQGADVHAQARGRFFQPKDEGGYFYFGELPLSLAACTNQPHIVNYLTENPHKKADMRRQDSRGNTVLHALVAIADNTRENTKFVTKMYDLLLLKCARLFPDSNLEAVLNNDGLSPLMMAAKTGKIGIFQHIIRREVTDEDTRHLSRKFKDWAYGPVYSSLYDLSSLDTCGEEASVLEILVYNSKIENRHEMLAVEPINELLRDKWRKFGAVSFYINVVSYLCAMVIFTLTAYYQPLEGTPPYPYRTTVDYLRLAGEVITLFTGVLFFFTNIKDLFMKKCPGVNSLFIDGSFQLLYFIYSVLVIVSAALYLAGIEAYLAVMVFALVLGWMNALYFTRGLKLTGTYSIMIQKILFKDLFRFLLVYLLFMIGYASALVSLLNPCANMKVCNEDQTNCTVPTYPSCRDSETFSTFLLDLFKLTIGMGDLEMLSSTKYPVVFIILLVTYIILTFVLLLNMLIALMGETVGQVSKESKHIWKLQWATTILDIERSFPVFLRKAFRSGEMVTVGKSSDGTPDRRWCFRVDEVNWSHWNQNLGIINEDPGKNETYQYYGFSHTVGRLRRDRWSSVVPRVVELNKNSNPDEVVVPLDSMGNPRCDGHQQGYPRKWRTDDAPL
The series is described as follows: Test Example 1: TRPV4 inhibitory activity (IC50 value), 4α-PDD stimulation, Fluo4 calcium fluorescence (FLIPR TETRA). The format is cell-based. The conditions noted are these: Test Example 1, 4α-PDD stimulation, read-out: Test 1 IC50.

In another series the target is T5, hERG (IKr) (Homo sapiens, UniProt Q12809).
T5 construct: expressed in transfected cells; host or cells: HEK293
T5 sequence (Q12809 whole entry): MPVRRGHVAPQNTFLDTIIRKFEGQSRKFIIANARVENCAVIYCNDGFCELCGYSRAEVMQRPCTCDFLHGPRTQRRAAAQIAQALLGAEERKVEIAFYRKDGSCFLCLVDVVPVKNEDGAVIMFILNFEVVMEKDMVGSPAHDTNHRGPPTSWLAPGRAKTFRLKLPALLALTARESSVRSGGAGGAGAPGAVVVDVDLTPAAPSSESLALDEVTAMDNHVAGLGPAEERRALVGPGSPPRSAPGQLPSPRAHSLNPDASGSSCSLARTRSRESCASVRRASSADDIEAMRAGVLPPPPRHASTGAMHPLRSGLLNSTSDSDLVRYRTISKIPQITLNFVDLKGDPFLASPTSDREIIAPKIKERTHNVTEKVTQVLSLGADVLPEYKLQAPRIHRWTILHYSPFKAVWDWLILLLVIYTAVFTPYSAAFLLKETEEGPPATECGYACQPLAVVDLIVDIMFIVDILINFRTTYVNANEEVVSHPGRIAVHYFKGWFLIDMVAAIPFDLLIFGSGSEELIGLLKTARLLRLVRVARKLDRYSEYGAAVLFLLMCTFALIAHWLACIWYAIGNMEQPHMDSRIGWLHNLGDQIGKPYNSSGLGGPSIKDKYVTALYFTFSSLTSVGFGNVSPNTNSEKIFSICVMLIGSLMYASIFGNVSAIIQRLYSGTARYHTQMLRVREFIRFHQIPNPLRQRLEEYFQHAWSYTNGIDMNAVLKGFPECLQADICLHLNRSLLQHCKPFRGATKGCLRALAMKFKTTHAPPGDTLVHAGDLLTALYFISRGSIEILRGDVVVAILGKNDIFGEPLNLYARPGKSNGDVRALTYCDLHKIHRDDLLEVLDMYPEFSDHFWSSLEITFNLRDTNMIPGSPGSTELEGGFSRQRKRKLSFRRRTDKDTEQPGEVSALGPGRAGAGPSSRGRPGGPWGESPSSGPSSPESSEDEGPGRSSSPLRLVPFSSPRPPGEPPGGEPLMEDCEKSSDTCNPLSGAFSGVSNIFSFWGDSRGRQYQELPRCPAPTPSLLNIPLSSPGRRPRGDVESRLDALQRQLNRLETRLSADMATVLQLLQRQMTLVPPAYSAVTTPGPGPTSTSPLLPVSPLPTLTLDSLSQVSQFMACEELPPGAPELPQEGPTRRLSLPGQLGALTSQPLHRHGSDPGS
The series is described as follows: Test Example 10: hERG test (IKr, whole cell patch clamp). The conditions noted are these: HEK293 cells expressing hERG channel, pH 7.4, 1 μmol/L of the compound, read-out: hERG % inhibition of tail peak current (IKr). Type of series: cell-based. The source says:
For the purpose of assessing risk of an electrocardiogram QT interval prolongation of a compound of the present invention, effects of the compound of the present invention on delayed rectifier K^+ current (IKr), which plays an important role in the ventricular repolarization process, was studied using HEK293 cells expressing human ether-a-go-go related gene (hERG) channel.
After a cell was retained at a membrane potential of −80 mV by whole cell patch clamp method using an automated patch clamp system (PatchXpress 7000A, Axon Instruments Inc.), IKr induced by depolarization pulse stimulation at +40 mV for 2 seconds and, further, repolarization pulse stimulation at −50 mV for 2 seconds was recorded. […] From the recording IKr, an absolute value of the tail peak current was measured based on the current value at the resting membrane potential using an analysis software (DataXpress ver. 1, Molecular Devices Corporation). Further, the % inhibition relative to the tail peak current before application of the compound of the present invention was calculated, and compared with the vehicle-applied group (0.1% dimethyl sulfoxide solution) to assess influence of the compound of the present invention on IKr. […]

For two molecules, bioavailability, IC50 and inhibition results are on record in patent publication US20170066759A1, “AROMATIC 5-MEMBERED HETEROCYCLIC DERIVATIVE HAVING TRPV4-INHIBITING ACTIVITY” (Shionogi & Co., Ltd., priority 2012, published 2017).

For orientation: bioavailability means dose-corrected exposure relative to a reference, in per cent. Higher therefore signals much systemic uptake. Broadly, the IC50 is the midpoint of a concentration-inhibition curve. The term inhibition denotes the percentage by which the read-out fell short of the control.

The structures appear in SMILES notation. Where only a bound is given, the exact number is not on record here.

For `Cc1nc(C)c(-c2csc(NC(=O)Cc3ccc(S(C)(=O)=O)cc3)n2)s1` [Compound I-17], in series [1], the bioavailability amounted to 54.6%. Also, the IC50 on CYP3A4, against CYP2C9 and at CYP2D6 was above 20 µM each time.

For the molecule `Cc1nc(C)c(-c2csc(NC(=O)C3CCC(F)(F)C3)n2)s1` (stereo not drawn) [Compound I-18], in series [2], the IC50 was 0.1 to 1 µM. Also, at hERG (IKr), the inhibition at 10 min, 1 μmol/L came out at 6.1%.
